Literature values as cited in patent publication US20260265214A1, “NOVEL DERIVATIVES OF GLYCEROL” (SYMRISE AG, priority 2023, published 2026).

Details: in 28 days

## CCCCCC1C(=O)CCC1CC(=O)OC (stereo not shown) [methyl dihydrojasmonate, methyl 2-(3′-oxo-2′-pentylcyclopentyl)acetate]
  readily biodegradable: 85%
